Laboratory results: patent publication US4623662A, “Antiatherosclerotic ureas and thioureas” (American Cyanamid Company, priority 1985, dated 1986)
Where “and” joins values, the source holds several entries; their conditions need not be identical. Equal entries are not always repeated. Where two headings read alike, the source gives them in different places.

What was measured:
[1] = molecular target: T1, fatty acyl CoA: cholesterol acyl transferase (ACAT) (Rattus norvegicus, UniProt O70536); experiment: Inhibition of fatty acyl CoA:cholesterol acyl transferase (ACAT), rat adrenal enzyme; format: biochemical
T1 construct: The supernatant, containing the microsomal fraction, served as the source of the cholesterol-esterifying enzyme; from tissue; host or cells: rat adrenals, supernatant of 1,000 x g centrifugation containing the microsomal fraction
T1 sequence (O70536 1-545): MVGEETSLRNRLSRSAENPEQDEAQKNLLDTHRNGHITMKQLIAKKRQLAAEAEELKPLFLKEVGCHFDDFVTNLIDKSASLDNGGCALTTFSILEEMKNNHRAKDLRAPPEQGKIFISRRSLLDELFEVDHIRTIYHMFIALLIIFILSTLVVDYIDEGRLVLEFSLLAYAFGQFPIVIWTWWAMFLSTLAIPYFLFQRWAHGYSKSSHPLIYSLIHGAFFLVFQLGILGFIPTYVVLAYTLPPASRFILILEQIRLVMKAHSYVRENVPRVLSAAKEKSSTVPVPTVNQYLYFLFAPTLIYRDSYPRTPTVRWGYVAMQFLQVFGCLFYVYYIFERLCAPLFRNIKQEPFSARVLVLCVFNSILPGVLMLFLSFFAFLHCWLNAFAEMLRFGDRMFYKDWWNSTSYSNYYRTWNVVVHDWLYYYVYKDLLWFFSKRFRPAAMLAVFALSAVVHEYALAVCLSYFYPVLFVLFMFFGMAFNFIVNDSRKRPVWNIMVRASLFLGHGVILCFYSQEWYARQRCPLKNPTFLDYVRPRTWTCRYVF
Summary of the method: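 Read-out was scintillation counting of [14C]cholesteryl ester, isolated by TLC, after 10 min at 37° C with [14C]oleoyl CoA. Beforehand, compound (final 5.2 μg/ml in single-concentration tests) was preincubated 10 min at 37° C with BSA and rat adrenal microsomal supernatant in pH 7.4 phosphate. Results given as percent inhibition versus control or IC50 over several concentrations.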

cholesterol absorption = experiment: Inhibition of cholesterol absorption in rats fed 1% cholesterol:0.5% cholic acid diet; format: in vivo, male Sprague-Dawley rats; settings: po, 336 h, rat, dose .03% of the diet, 2 weeks
Summary of the method: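 Compound was mixed into the diet (0.001-0.03%) of male Sprague-Dawley rats, 150-170 g, on a 1% cholesterol/0.5% cholic acid regimen for 2 weeks. At sacrifice, serum cholesterol (enzymatic) and liver neutral-sterol cholesterol were measured; values given as percent of compound-free control rats.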

[2] = rat adrenal ACAT, final concentration 5.2 μg/ml, read-out: % Inhibition
[3] = read-out: LS (liver sterol), percentage of control values
[4] = read-out: SS (serum sterol), percentage of control values

Row | Compound | inhibition at 5.2 µg/mL [1, 2] | response vs control in vivo at 0.03 % (cholesterol absorption; [3]) | response vs control in vivo at 0.03 % (cholesterol absorption; [4]) | inhibition at 5.2 µg/mL [1] | % Inhibition ([1]; rat adrenal ACAT, final concentration 5.2 μg/ml)
1 | Cc1ccc(NC(=O)N(Cc2ccccc2)C(Cc2ccccc2)c2ccccc2)c(C)c1 (stereo not drawn) [1-Benzyl-1-(1,2-diphenylethyl)-3-(2,4-dimethylphenyl)urea] | 95% | 63% | 52% |  | 
2 | CCCCOc1ccc(CN(Cc2ccccc2)C(=O)Nc2cc(C)c(C)cc2C)cc1 [1-Benzyl-1-(4-butyloxybenzyl)-3-(2,4,5-trimethylphenyl)urea] | 95.8% | 12% | 43% |  | 
3 | CCCCOc1ccc(CN(Cc2ccccc2)C(=O)Nc2ccc(C)cc2C)cc1 [1-Benzyl-1-(4-butyloxybenzyl)-3-(2,4-dimethylphenyl)urea] | 91.7% | 15% | 48% |  | 
4 | CCCCOc1ccc(CN(Cc2ccccc2)C(=O)Nc2c(Cl)cc(Cl)cc2Cl)cc1 [1-Benzyl-1-(4-n-butoxybenzyl)-3-(2,4,6-trichlorophenyl)urea] | 95.2% | 8% | 40% |  | 
5 | CCCCOc1ccc(CN(Cc2ccccc2)C(=O)Nc2ccc(Cl)cc2Cl)cc1 [1-Benzyl-1-(4-n-butoxybenzyl)-3-(2,4-dichlorophenyl)urea] | 80% | 49% | 53% |  | 
6 | CCCCOc1ccc(CN(Cc2ccccc2)C(=O)Nc2ccc(F)cc2F)cc1 [1-Benzyl-1-(4-n-butoxybenzyl)-3-(2,4-difluorophenyl)urea] | 88% | 22% | 53% |  | 
7 | CCCCOc1ccc(CN(Cc2ccccc2)C(=O)Nc2ccc(Cl)cc2C(F)(F)F)cc1 [1-Benzyl-1-(4-n-butoxybenzyl)-3-(2-trifluoromethyl-4-chlorophenyl)urea] | 85% | 31% | 58% |  | 
8 | CCCCc1ccc(CN(Cc2ccccc2)C(=O)Nc2cc(C)c(C)cc2C)cc1 [1-Benzyl-1-(4-n-butylbenzyl)-3-(2,4,5-trimethylphenyl)urea] | 90.5% | 10% | 50% |  | 
9 | CCCCc1ccc(CN(Cc2ccccc2)C(=O)Nc2c(C)cc(C)cc2C)cc1 [1-Benzyl-1-(4-n-butylbenzyl)-3-(2,4,6-trimethylphenyl)urea] | 92.8% | 13% | 53% |  | 
10 | CCCCc1ccc(CN(Cc2ccccc2)C(=O)Nc2ccc(C)cc2C)cc1 [1-Benzyl-1-(4-n-butylbenzyl)-3-(2,4-dimethylphenyl)urea] | 91.9% | 20% | 41% |  | 
11 | CCCCc1ccc(CN(Cc2ccccc2)C(=O)Nc2ccc(Cl)cc2C)cc1 [1-Benzyl-1-(4-n-butylbenzyl)-3-(2-methyl-4-chlorophenyl)urea] | 94.3% | 21% | 70% |  | 
12 | CCCCc1ccc(CN(Cc2ccccc2)C(=O)Nc2ccc(CCCC)cc2)cc1 [1-Benzyl-1-(4-n-butylbenzyl)-3-(4-n-butylphenyl)urea] | 92% | 61% | 53% |  | 
13 | CCCCOc1ccc(CN(Cc2ccccc2)C(=O)Nc2cc(Cl)c(Cl)cc2Cl)cc1 [1-Benzyl-1-(4-n-butyloxybenzyl)-3-(2,4,5-trichlorophenyl)urea] | 89% | 65% | 66% |  | 
14 | CCCCN(Cc1ccccc1)C(=O)Nc1c(Cl)cc(Cl)cc1Cl [1-Benzyl-1-( -n-butyl)-3-(2,4,6-trichlorophenyl)urea] | 87.8% | 32% | 48% |  | 
15 | CCCCN(Cc1ccccc1)C(=O)Nc1c(C)cccc1C [1-Benzyl-1-( -n-butyl)-3-(2,6-dimethylphenyl)urea] | 83.1% | 91% | 68% |  | 
16 | CCCCN(Cc1ccccc1)C(=O)Nc1cc(C)cc(C)c1 [1-Benzyl-1-( -n-butyl)-3-(3,5-dimethylphenyl)urea] | 94.2% | 75% | 93% |  | 
17 | CCCCN(Cc1ccccc1)C(=O)Nc1ccc(C)cc1C [1-Benzyl-1-(n-butyl)-3-(2,4-dimethylphenyl)urea] | 91.3% | 65% | 70% |  | 
18 | O=C(Nc1c(Cl)cc(Cl)cc1Cl)N(Cc1ccccc1)C(Cc1ccccc1)c1ccc(OCc2ccccc2)cc1 (stereo not drawn) [1-Benzyl-1-[2-phenyl-1-(4-benzyloxyphenyl)ethyl]-3-(2,4,6-trichlorophenyl)urea] | 95% | 64% | 95% |  | 
19 | Cc1cc(C)c(NC(=O)N(Cc2ccccc2)C(Cc2ccccc2)c2ccc(OCc3ccccc3)cc2)c(C)c1 (stereo not drawn) [1-Benzyl-1-[2-phenyl-1-(4-benzyloxyphenyl)ethyl]-3-(2,4,6-trimethylphenyl)urea] |  | 49% | 60% | 90% | 
20 | O=C(Nc1ccc(F)cc1F)N(Cc1ccccc1)C(Cc1ccccc1)c1ccc(OCc2ccccc2)cc1 (stereo not drawn) [1-Benzyl-1-[2-phenyl-1-(4-benzyloxyphenyl)ethyl]-3-(2,4-difluorophenyl)urea] |  | 27% | 48% |  | 70.0% and 91.0%
21 | Cc1cc(Cl)ccc1NC(=O)N(Cc1ccccc1)C(Cc1ccccc1)c1ccc(OCc2ccccc2)cc1 (stereo not drawn) [1-Benzyl-1-[2-phenyl-1-(4-benzyloxyphenyl)ethyl]-3-(2-methyl-4-chlorophenyl)urea] | 89.3% | 31% | 50% |  | 
22 | CCCCCCCN(Cc1cccs1)C(=O)Nc1cc(C)c(C)cc1C [1-Heptyl-1-(2-thienylmethyl)-3-(2,4,5-trimethylphenyl)urea] |  | 25% | 54% | 90% | 
23 | CCCCCCCN(Cc1cccs1)C(=O)Nc1c(Cl)cc(Cl)cc1Cl [1-Heptyl-1-(2-thienylmethyl)-3-(2,4,6-trichlorophenyl)urea] |  | 28% | 56% | 90% | 
24 | Cc1ccc(CCN(Cc2cccc(Cl)c2)C(=O)Nc2ccc(C)cc2C)cc1 [1-[2-(4-Methylphenyl)ethyl]-1-(3-chlorobenzyl)-3-(2,4-dimethylphenyl)urea] | 67.6% | 20% | 50% |  | 
25 | CCCCOc1ccc(CN(Cc2cccs2)C(=O)Nc2cc(C)c(C)cc2C)cc1 [1-[(4-Butoxyphenyl)methyl]-1-(2-thienylmethyl)-3-(2,4,5-trimethylphenyl)urea] |  | 16% | 41% | 90% | 
26 | CCCCc1ccc(CN(CCCCCCCl)C(=O)Nc2cc(C)c(C)cc2C)cc1 [1-[(4-Butylphenyl)methyl]-1-(6-chlorohexyl)-3-(2,4,5-trimethylphenyl)urea] |  | 15% | 40% | 90% | 
27 | CCCCc1ccc(CN(CCCCCCCl)C(=O)Nc2c(Cl)cc(Cl)cc2Cl)cc1 [1-[(4-Butylphenyl)methyl]-1-(6-chlorohexyl)-3-(2,4,6-trichlorophenyl)urea] |  | 19% | 34% | 90% | 
28 | CCCCc1ccc(CN(CCCCCCCl)C(=O)Nc2ccc(Cl)cc2C)cc1 [1-[(4-Butylphenyl)methyl]-1-(6-chlorohexyl)-3-(4-chloro-2-methylphenyl)urea] |  | 35% | 46% | 90% | 
29 | CCCCc1ccc(CN(CCCCCCC#N)C(=O)Nc2cc(C)c(C)cc2C)cc1 [1-[(4-Butylphenyl)methyl]-1-(6-cyanohexyl)-3-(2,4,5-trimethylphenyl)urea] |  | 28% | 48% | 90% | 
30 | CCCCc1ccc(CN(CCCCCCC#N)C(=O)Nc2c(Cl)cc(Cl)cc2Cl)cc1 [1-[(4-Butylphenyl)methyl]-1-(6-cyanohexyl)-3-(2,4,6-trichlorophenyl)urea] |  | 35% | 31% | 90% | 
